Results published in patent US5616609A, “Carcinostatic compound and production thereof” (priority 1991, dated 1997).
Where two headings read alike, the source gives them in different places.

Assays:
[1] = test system: MKU-28 gastric cancer cells; experiment: Inhibition of proliferation of human gastric cancer cells MKU-28 (Tests 2 and 4); format: cell-based; conditions: gastric cancer MKU-28, RMP-1640 + 10% calf serum, 37° C.
Method: (§1) Cells of gastric cancer, pulmonary cancer, liver cancer and leukemia, which had been separated from human patients, were separately placed in portions of RMP-1640 medium containing 10% calf serum and then incubated at 37° C. for 4 days in a 5% CO2 -incubator to obtain a cell population of 10^4 /ml. To the cells of each cancer kind so cultured, stelleramacrin was added at varied concentrations, and the concentration (IC50) of each test compound at which proliferation of the human cancer cells was inhibited by 50% was deterimined.
as §1, with “separately placed on portions of” for “separately placed in portions of”, “so cultured, gnidimacrin or pimelea factor was added” for “so cultured, stelleramacrin was added”, “(IC50) of the test compound” for “(IC50) of each test compound”, “50% was determined.” for “50% was deterimined.”

[2] = test system: MKV-74 gastric cancer cells; experiment: Inhibition of proliferation of human gastric cancer cells MKV-74 (Tests 2 and 4); format: cell-based; conditions: gastric cancer MKV-74, RMP-1640 + 10% calf serum, 37° C.
Method: as §1
as §1, with “separately placed on portions of” for “separately placed in portions of”, “so cultured, gnidimacrin or pimelea factor was added” for “so cultured, stelleramacrin was added”, “(IC50) of the test compound” for “(IC50) of each test compound”, “50% was determined.” for “50% was deterimined.”

[3] = test system: K-III gastric cancer cells; experiment: Inhibition of proliferation of human gastric cancer cells K-III (Tests 2 and 4); format: cell-based; conditions: RMP-1640 + 10% calf serum, 37° C.
Method: as §1
as §1, with “separately placed on portions of” for “separately placed in portions of”, “so cultured, gnidimacrin or pimelea factor was added” for “so cultured, stelleramacrin was added”, “(IC50) of the test compound” for “(IC50) of each test compound”, “50% was determined.” for “50% was deterimined.”

[4] = test system: MKV-45 gastric cancer cells; experiment: Inhibition of proliferation of human gastric cancer cells MKV-45 (Tests 2 and 4); format: cell-based; conditions: gastric cancer MKV-45, RMP-1640 + 10% calf serum, 37° C.
Method: as §1
as §1, with “separately placed on portions of” for “separately placed in portions of”, “so cultured, gnidimacrin or pimelea factor was added” for “so cultured, stelleramacrin was added”, “(IC50) of the test compound” for “(IC50) of each test compound”, “50% was determined.” for “50% was deterimined.”

[5] = test system: LU-99 pulmonary cancer cells; experiment: Inhibition of proliferation of human pulmonary cancer cells LU-99 (Tests 2 and 4); format: cell-based; conditions: pulmonary cancer LU-99, RMP-1640 + 10% calf serum, 37° C.
Method: as §1
as §1, with “separately placed on portions of” for “separately placed in portions of”, “so cultured, gnidimacrin or pimelea factor was added” for “so cultured, stelleramacrin was added”, “(IC50) of the test compound” for “(IC50) of each test compound”, “50% was determined.” for “50% was deterimined.”

[6] = test system: N-237 pulmonary cancer cells; experiment: Inhibition of proliferation of human pulmonary cancer cells N-237 (Tests 2 and 4); format: cell-based; conditions: pulmonary cancer N-237, RMP-1640 + 10% calf serum, 37° C.
Method: as §1
as §1, with “separately placed on portions of” for “separately placed in portions of”, “so cultured, gnidimacrin or pimelea factor was added” for “so cultured, stelleramacrin was added”, “(IC50) of the test compound” for “(IC50) of each test compound”, “50% was determined.” for “50% was deterimined.”

[7] = test system: H-69 pulmonary cancer cells; experiment: Inhibition of proliferation of human pulmonary cancer cells H-69 (Tests 2 and 4); format: cell-based; conditions: pulmonary cancer H-69, RMP-1640 + 10% calf serum, 37° C.
Method: as §1
as §1, with “separately placed on portions of” for “separately placed in portions of”, “so cultured, gnidimacrin or pimelea factor was added” for “so cultured, stelleramacrin was added”, “(IC50) of the test compound” for “(IC50) of each test compound”, “50% was determined.” for “50% was deterimined.”

[8] = test system: PC-14 pulmonary cancer cells; experiment: Inhibition of proliferation of human pulmonary cancer cells PC-14 (Tests 2 and 4); format: cell-based; conditions: pulmonary cancer PC-14, RMP-1640 + 10% calf serum, 37° C.
Method: as §1
as §1, with “separately placed on portions of” for “separately placed in portions of”, “so cultured, gnidimacrin or pimelea factor was added” for “so cultured, stelleramacrin was added”, “(IC50) of the test compound” for “(IC50) of each test compound”, “50% was determined.” for “50% was deterimined.”

[9] = test system: PC-7 pulmonary cancer cells; experiment: Inhibition of proliferation of human pulmonary cancer cells PC-7 (Tests 2 and 4); format: cell-based; conditions: pulmonary cancer PC-7, RMP-1640 + 10% calf serum, 37° C.
Method: as §1
as §1, with “separately placed on portions of” for “separately placed in portions of”, “so cultured, gnidimacrin or pimelea factor was added” for “so cultured, stelleramacrin was added”, “(IC50) of the test compound” for “(IC50) of each test compound”, “50% was determined.” for “50% was deterimined.”

[10] = test system: HLE liver cancer cells; experiment: Inhibition of proliferation of human liver cancer cells HLE (Tests 2 and 4); format: cell-based; conditions: RMP-1640 + 10% calf serum, 37° C.
Method: as §1
as §1, with “separately placed on portions of” for “separately placed in portions of”, “so cultured, gnidimacrin or pimelea factor was added” for “so cultured, stelleramacrin was added”, “(IC50) of the test compound” for “(IC50) of each test compound”, “50% was determined.” for “50% was deterimined.”

[11] = test system: K-502 leukemia cells; experiment: Inhibition of proliferation of human leukemia cells K-502 (Tests 2 and 4); format: cell-based; conditions: leukemia K-502, RMP-1640 + 10% calf serum, 37° C.
Method: as §1
as §1, with “separately placed on portions of” for “separately placed in portions of”, “so cultured, gnidimacrin or pimelea factor was added” for “so cultured, stelleramacrin was added”, “(IC50) of the test compound” for “(IC50) of each test compound”, “50% was determined.” for “50% was deterimined.”

[12] = test system: Lewis pulmonary cancer cells; experiment: Lewis pulmonary cancer, hypodermic transplant in BDF1 mice (Test 3); format: in vivo, mouse (BDF1); conditions: once a day for 5 days, vs control
Method: (§2) Hypodermically transplanted to induce solid cancer were Lewis pulmonary cancer cells to BDF1 mice in an amount of 1×10^6 cells per mouse, Clon 26 large bowel cancer cells to BALB/C mice in an amount of 5×10^5 cells per mouse and a 20% homogenate of B-16 melanoma solid cancer to BDF1 mice in an amount of 0.25 ml per mouse. From the following day of the transplantation, gnidimacrin and pimelea factor P2 were administered separately once a day for 5 days. Each test group was compared in apothanasia rate with a control group. The results on gnidimacrin and pimelea factor P2 are shown in Table 3 and Table 4, respectively.

[13] = test system: B-16 melanoma; experiment: B-16 melanoma, hypodermic transplant in BDF1 mice (Test 3); format: in vivo, mouse (BDF1); conditions: once a day for 5 days, vs control
Method: as §2

[14] = test system: Colon 26 large bowel cancer; experiment: Colon 26 large bowel cancer, hypodermic transplant in BALB/C mice (Test 3); format: in vivo, mouse (BALB/C); conditions: once a day for 5 days, vs control
Method: as §2

[15] = test system: Lewis pulmonary cancer cells; experiment: Lewis pulmonary cancer in mice, intravenous administration; format: in vivo, mouse; conditions: 0.06 mg/Kg
[16] = test system: Meth A fibrosarcoma; experiment: Meth A fibrosarcoma solid cancer in male BALB/c mice, injection into the cancer (Test 5); format: in vivo, mouse (BALB/c); conditions: 0.001 mg/Kg injected into solid cancer once a day for 5 days, 21st day
Method: Using laboratory animals, effects of gnidimacrin on solid cancer were studied. First, intradermally inoculated to male BALB/c mice (each group consisting of 6 mice, each having a weight of 17-21 g) was 0.01 ml of RPMI 1640 solution which contained 10% fetal serum and 1×10^5 cells/ml of Meth A fibrosarcoma. Seven days after the inoculation, solid cancer was formed. Into the solid cancer, gnidimacrin which had been dissolved in physiological saline containing 0.5% CMC, was administered at 0.001 mg/Kg by injection. That administration was conducted once a day for 5 days. On the 21st day from the inoculation of Meth A fibrosarcoma, the cancer was cut out and its weight was compared with that of a control group not administered with gnidimacrin. […] Namely, gnidimacrin inhibited the proliferation of the solid cancer by 81%.

[17] = test system: solid cancer such as gastric cancer, pulmonary cancer, liver cancer; experiment: Inhibiting action against solid cancer (summary statement); conditions: liver cancer or the like
[18] = test system: mouse leukemia cell P-388; experiment: P-388 mouse leukemia, intraperitoneal transplant in BDF1 mice, survival (Test 1); format: in vivo; conditions: 1 mg/kg, once a day for 5 days
Excerpt: The mouse leukemia cell P-388 was intraperitoneally transplanted to BDF1 mice in an amount of 1×10^6 cells per mouse. From the following day, each test drug was intraperitoneally administered to the mice once a day for 5 days. Each test group was compared in the number of survival days with a control group to determine an apothanasia rate.

[19] = Acute toxicity (LD50); conditions: in vivo; species and route not given

Compound: C=C(C)[C@@]12C[C@@H](COC(=O)c3ccccc3)[C@@]34OC5(O[C@@H]1[C@@H]3[C@@H]1O[C@]1(CO)[C@@H](O)[C@@]1(O)[C@H]4[C@H]([C@H](C)[C@@H]1OC(=O)c1ccccc1)[C@H](C)CCCCCC[C@H]5O)O2 (single isomer, unassigned) [Gnidimacrin, gnidimacrin]
- IC50 ([1]; Homo sapiens, read-out: IC50): 0.006 µg/mL
- IC50 ([2]; Homo sapiens, read-out: IC50): > 1 µg/mL
- IC50 ([3]; Homo sapiens, read-out: IC50): 0.0006 µg/mL
- IC50 ([4]; Homo sapiens, read-out: IC50): 0.0001 µg/mL
- IC50 ([5]; Homo sapiens, read-out: IC50): 1 µg/mL
- IC50 ([6]; Homo sapiens, read-out: IC50): 0.2 µg/mL
- IC50 ([7]; Homo sapiens, read-out: IC50): 0.6 µg/mL
- IC50 ([8]; Homo sapiens, read-out: IC50): 0.85 µg/mL
- IC50 ([9]; Homo sapiens, read-out: IC50): 0.5 µg/mL
- IC50 ([10]; Homo sapiens, read-out: IC50): 2 µg/mL
- IC50 ([11]; Homo sapiens, read-out: IC50): 0.0025 µg/mL
- Apothanasia rate ([12]; 0.02 mg/kg): 40.0%
- Apothanasia rate ([13]; 0.02 mg/kg): 49.2%
- Apothanasia rate ([14]; 0.01 mg/kg): 26.8%
- Apothanasia rate [15]: 47.8%
- average cancer weight ([16]; control group 2.1 g): 0.4 g
- inhibition of the proliferation of the solid cancer ([16]; vs control): 81%
- inhibiting action against solid cancer [17]: strong inhibiting action

Compound: C=C(C)C12CC(COC(=O)c3ccccc3)C34OC5(OC1C3C1OC1(CO)C(O)C1(O)C(O)C(C)C(C(C)CCCCCCC5O)C14)O2 (single isomer, unassigned) [Stelleramacrin A]
- Average number of survival days ([18]; control group 8.08 days): 13.83 days
- Apothanasia rate ([18]; survival days vs control): 71%
- IC50 ([1]; Homo sapiens, read-out: IC50): 0.2 µg/mL
- IC50 ([2]; Homo sapiens, read-out: IC50): > 10 µg/mL
- IC50 ([3]; Homo sapiens, read-out: IC50): 0.1 µg/mL
- IC50 ([4]; Homo sapiens, read-out: IC50): 0.8 µg/mL
- IC50 ([5]; Homo sapiens, read-out: IC50): > 10 µg/mL
- IC50 ([6]; Homo sapiens, read-out: IC50): 5.3 µg/mL
- IC50 ([7]; Homo sapiens, read-out: IC50): 10.2 µg/mL
- IC50 ([8]; Homo sapiens, read-out: IC50): 8.4 µg/mL
- IC50 ([9]; Homo sapiens, read-out: IC50): 5.1 µg/mL
- IC50 ([10]; Homo sapiens, read-out: IC50): > 10 µg/mL
- IC50 ([11]; Homo sapiens, read-out: IC50): 10 µg/mL
- LD50 [19]: 5 mg/kg

Compound: C=C(C)[C@]12C[C@@H](C)[C@@]34OC5(CCCCCCC[C@H](C)[C@H]6[C@H](C)[C@H](OC(=O)c7ccccc7)[C@@](O)([C@H](O)[C@@]7(CO)O[C@H]7[C@H]3[C@H]1O5)[C@@H]64)O2 [Pimelea factor P2, pimelea factor P2]
- IC50 [1]: 0.01 µg/mL
- IC50 [2]: 10 µg/mL
- IC50 [3]: 0.003 µg/mL
- IC50 [4]: 0.005 µg/mL
- IC50 [5]: 10 µg/mL
- IC50 [6]: 3.8 µg/mL
- IC50 [7]: 7 µg/mL
- IC50 [8]: 3.2 µg/mL
- IC50 [9]: 1.7 µg/mL
- IC50 [10]: 10 µg/mL
- IC50 [11]: 0.3 µg/mL
- Apothanasia rate ([12]; 0.1 mg/kg): 35.2%
- Apothanasia rate ([13]; 0.1 mg/kg): 41.8%
- Apothanasia rate ([14]; 0.05 mg/kg): 18.5%
- inhibiting action against solid cancer [17]: strong inhibiting action
